In patent US20200361895A1, “NOVEL SULFONAMIDE CARBOXAMIDE COMPOUNDS” (Inflazome Limited, priority 2017, published 2020):
Structures can show the parent of a compound that is named as a salt.

Biological target: NLRP3 (Homo sapiens, UniProt Q96P20)
Assay: THP-1 cells pyroptosis assay (LPS + nigericin, resazurin readout; THP IC50)
Assay type: cell-based
Parameters: Seed THP-1 cells (25,000 cells/well) containing 1.0 μg/ml LPS in 40 μl of RPMI medium; host or cells: THP-1 cells
Description: THP-1 cells (ATCC #TIB-202) were grown in RPMI containing L-glutamine (Gibco #11835) supplemented with 1 mM sodium pyruvate (Sigma #S8636) and penicillin (100 units/ml)/streptomycin (0.1 mg/ml) (Sigma #P4333) in 10% Fetal Bovine Serum (FBS) (Sigma #F0804). The cells were routinely passaged and grown to confluency (˜10^6 cells/ml). On the day of the experiment, THP-1 cells were harvested and resuspended into RPMI medium (without FBS). The cells were then counted and viability (>90%) checked by Trypan blue (Sigma #T8154). Appropriate dilutions were made to give a concentration of 625,000 cells/ml. To this diluted cell solution was added LPS (Sigma #L4524) to give a 1 μg/ml Final Assay Concentration (FAC). 40 μl of the final preparation was aliquoted into each well of a 96-well plate. The plate thus prepared was used for compound screening.
The following method step-by-step assay was followed for compound screening. • 1. Seed THP-1 cells (25,000 cells/well) containing 1.0 μg/ml LPS in 40 μl of RPMI medium (without FBS) in 96-well, black walled, clear bottom cell culture plates coated with poly-D-lysine (VWR #734-0317) • 2. Add 5 μcompound (8 points half-log dilution, with 10 μM top dose) or vehicle (DMSO 0.1% FAC) to the appropriate wells • 3. Incubate for 3 hrs at 37° C. and 5% CO2 • 4. Add 5 μnigericin (Sigma #N7143) (FAC 5 μM) to all wells • 5. Incubate for 1 hr at 37° C. and 5% CO2 • 6. At the end of the incubation period, spin plates at 300×g for 3 mins and remove supernatant • 7. Then add 50 μl of resazurin (Sigma #R7017) (FAC 100 μM resazurin in RPMI medium without FBS) and incubate plates for a further 1-2 hrs at 37° C. and 5% CO2 • 8. Plates were read in an Envision reader at Ex 560 nm and Em 590 nm • 9. IC50 data is fitted to a non-linear regression equation (log inhibitor vs response-variable slope 4-parameters)

NLRP3, sequence (Q96P20 whole entry): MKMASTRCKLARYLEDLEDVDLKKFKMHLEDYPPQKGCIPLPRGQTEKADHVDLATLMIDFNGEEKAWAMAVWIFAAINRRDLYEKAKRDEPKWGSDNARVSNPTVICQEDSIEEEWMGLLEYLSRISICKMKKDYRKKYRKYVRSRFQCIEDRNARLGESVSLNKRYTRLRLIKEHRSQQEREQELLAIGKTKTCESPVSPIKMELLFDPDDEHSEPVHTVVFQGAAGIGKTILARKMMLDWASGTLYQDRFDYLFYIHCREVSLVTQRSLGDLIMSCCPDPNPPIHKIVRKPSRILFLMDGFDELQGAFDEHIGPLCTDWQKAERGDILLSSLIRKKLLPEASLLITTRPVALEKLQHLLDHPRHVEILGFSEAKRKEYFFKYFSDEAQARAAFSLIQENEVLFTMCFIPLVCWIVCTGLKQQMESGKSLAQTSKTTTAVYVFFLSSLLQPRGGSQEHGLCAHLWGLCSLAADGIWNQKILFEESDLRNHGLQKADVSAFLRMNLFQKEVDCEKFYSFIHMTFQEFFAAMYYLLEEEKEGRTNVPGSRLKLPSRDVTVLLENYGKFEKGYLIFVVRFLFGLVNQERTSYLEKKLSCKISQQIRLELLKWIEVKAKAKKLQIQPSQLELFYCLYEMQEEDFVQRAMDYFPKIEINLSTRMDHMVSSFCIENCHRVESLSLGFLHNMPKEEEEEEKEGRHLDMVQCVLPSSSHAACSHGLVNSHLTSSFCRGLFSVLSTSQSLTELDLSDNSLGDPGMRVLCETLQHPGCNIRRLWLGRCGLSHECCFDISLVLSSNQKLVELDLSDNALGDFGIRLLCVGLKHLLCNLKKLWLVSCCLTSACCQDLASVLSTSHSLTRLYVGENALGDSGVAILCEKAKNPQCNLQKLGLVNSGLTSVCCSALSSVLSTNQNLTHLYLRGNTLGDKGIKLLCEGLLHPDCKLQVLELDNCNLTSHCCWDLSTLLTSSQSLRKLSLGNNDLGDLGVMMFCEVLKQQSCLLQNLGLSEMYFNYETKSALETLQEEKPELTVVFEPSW

IC50, ≤ 1 µM:
CC(C)c1cc(F)cc(-c2cncnc2)c1NC(=O)NS(=O)(=O)c1ccn(C(C)C)n1 [Example 18, N-((4-Fluoro-2-iso-propyl-6-(pyrimidin-5-yl)phenyl)carbamoyl)-1-iso-propyl-1H-pyrazole-3-sulfonamide]
COc1ccc(-c2cc(F)cc(C(C)C)c2NC(=O)NS(=O)(=O)c2ccn(C(C)C)n2)cn1 [Example 19, N-((4-Fluoro-2-iso-propyl-6-(6-methoxypyridin-3-yl)phenyl)carbamoyl)-1-iso-propyl-1H-pyrazole-3-sulfonamide]
Cc1cnccc1-c1cc(F)cc(C(C)C)c1NC(=O)NS(=O)(=O)c1ccn(C(C)C)n1 [Example 22, N-((4-Fluoro-2-iso-propyl-6-(3-methylpyridin-4-yl)phenyl)carbamoyl)-1-iso-propyl-1H-pyrazole-3-sulfonamide]
CC(C)c1cc(F)cc(-c2ccnc(C(F)(F)F)c2)c1NC(=O)NS(=O)(=O)c1ccn(C(C)C)n1 [Example 47, N-((4-Fluoro-2-isopropyl-6-(2-(trifluoromethyl)pyridin-4-yl)phenyl)carbamoyl)-1-isopropyl-1H-pyrazole-3-sulfonamide]

IC50, ≤ 5 µM:
CC(C)c1cc(F)cc(-c2cnn(C)c2)c1NC(=O)NS(=O)(=O)c1ccn(C(C)C)n1 [Example 2, N-((4-Fluoro-2-iso-propyl-6-(1-methyl-1H-pyrazol-4-yl)phenyl)carbamoyl)-1-iso-propyl-1H-pyrazole-3-sulfonamide]
CC(C)c1cc(F)cc(-c2cncn2C)c1NC(=O)NS(=O)(=O)c1ccn(C(C)C)n1 [Example 3, N-((4-Fluoro-2-iso-propyl-6-(1-methyl-1H-imidazol-5-yl)phenyl)carbamoyl)-1-iso-propyl-1H-pyrazole-3-sulfonamide]
CC(C)c1cc(F)cc(-c2ccccc2)c1NC(=O)NS(=O)(=O)c1ccn(C(C)C)n1 [Example 4, N-((5-Fluoro-3-iso-propyl-[1,1′-biphenyl]-2-yl)carbamoyl)-1-iso-propyl-1H-pyrazole-3-sulfonamide]
CC(C)c1cc(F)cc(-c2ccnn2C)c1NC(=O)NS(=O)(=O)c1ccn(C(C)C)n1 [Example 5, N-((4-Fluoro-2-iso-propyl-6-(1-methyl-1H-pyrazol-5-yl)phenyl)carbamoyl)-1-iso-propyl-1H-pyrazole-3-sulfonamide]
CC(C)c1cc(F)cc(-c2cncs2)c1NC(=O)NS(=O)(=O)c1ccn(C(C)C)n1 [Example 6, N-((4-Fluoro-2-iso-propyl-6-(thiazol-5-yl)phenyl)carbamoyl)-1-iso-propyl-1H-pyrazole-3-sulfonamide]
CC(C)c1cc(F)cc(-c2cnoc2)c1NC(=O)NS(=O)(=O)c1ccn(C(C)C)n1 [Example 7, N-((4-Fluoro-2-iso-propyl-6-(isoxazol-4-yl)phenyl)carbamoyl)-1-iso-propyl-1H-pyrazole-3-sulfonamide]
CC(C)c1cc(F)cc(-c2cccc(C#N)c2)c1NC(=O)NS(=O)(=O)c1ccn(C(C)C)n1 [Example 8, N-((3′-Cyano-5-fluoro-3-iso-propyl-[1,1′-biphenyl]-2-yl)carbamoyl)-1-iso-propyl-1H-pyrazole-3-sulfonamide, sodium salt]
CC(C)c1cc(F)cc(-c2ccc(C#N)cc2)c1NC(=O)NS(=O)(=O)c1ccn(C(C)C)n1 [Example 9, N-((4′-Cyano-5-fluoro-3-iso-propyl-[1,1′-biphenyl]-2-yl)carbamoyl)-1-iso-propyl-1H-pyrazole-3-sulfonamide, sodium salt]
Cc1ncccc1-c1cc(F)cc(C(C)C)c1NC(=O)NS(=O)(=O)c1ccn(C(C)C)n1 [Example 14, N-((4-Fluoro-2-iso-propyl-6-(2-methylpyridin-3-yl)phenyl)carbamoyl)-1-iso-propyl-1H-pyrazole-3-sulfonamide, partial ammonium salt]
Cc1ccc(-c2cc(F)cc(C(C)C)c2NC(=O)NS(=O)(=O)c2ccn(C(C)C)n2)cn1 [Example 15, N-((4-Fluoro-2-iso-propyl-6-(6-methylpyridin-3-yl)phenyl)carbamoyl)-1-iso-propyl-1H-pyrazole-3-sulfonamide, partial ammonium salt]
CC(C)c1cc(F)cc(-c2cncc(Cl)c2)c1NC(=O)NS(=O)(=O)c1ccn(C(C)C)n1 [Example 16, N-((2-(5-Chloropyridin-3-yl)-4-fluoro-6-iso-propylphenyl)carbamoyl)-1-iso-propyl-1H-pyrazole-3-sulfonamide, partial ammonium salt]
COc1cncc(-c2cc(F)cc(C(C)C)c2NC(=O)NS(=O)(=O)c2ccn(C(C)C)n2)c1 [Example 17, N-((4-Fluoro-2-iso-propyl-6-(5-methoxypyridin-3-yl)phenyl)carbamoyl)-1-iso-propyl-1H-pyrazole-3-sulfonamide, partial ammonium salt]
Cc1ccncc1-c1cc(F)cc(C(C)C)c1NC(=O)NS(=O)(=O)c1ccn(C(C)C)n1 [Example 20, N-((4-Fluoro-2-iso-propyl-6-(4-methylpyridin-3-yl)phenyl)carbamoyl)-1-iso-propyl-1H-pyrazole-3-sulfonamide, partial ammonium salt]
CC(C)c1cc(F)cc(-c2cncc(F)c2)c1NC(=O)NS(=O)(=O)c1ccn(C(C)C)n1 [Example 21, N-((4-Fluoro-2-(5-fluoropyridin-3-yl)-6-isopropylphenyl)carbamoyl)-1-iso-propyl-1H-pyrazole-3-sulfonamide, partial ammonium salt]
COc1cc(-c2cc(F)cc(C(C)C)c2NC(=O)NS(=O)(=O)c2ccn(C(C)C)n2)cc(C)n1 [Example 26, N-((4-Fluoro-2-iso-propyl-6-(2-methoxy-6-methylpyridin-4-yl)phenyl)carbamoyl)-1-iso-propyl-1H-pyrazole-3-sulfonamide]
CCc1cc(-c2cc(F)cc(C(C)C)c2NC(=O)NS(=O)(=O)c2ccn(C(C)C)n2)ccn1 [Example 29, N-((2-(2-Ethylpyridin-4-yl)-4-fluoro-6-iso-propylphenyl)carbamoyl)-1-iso-propyl-1H-pyrazole-3-sulfonamide]
CC(C)c1cc(F)cc(-c2cnn(C)c2)c1NC(=O)NS(=O)(=O)c1cn(C(C)C)cn1 [Example 31, N-((4-Fluoro-2-iso-propyl-6-(1-methyl-1H-pyrazol-4-yl)phenyl)carbamoyl)-1-iso-propyl-1H-imidazole-4-sulfonamide]
CC(C)c1cc(F)cc(-c2cncnc2)c1NC(=O)NS(=O)(=O)c1cc(CN(C)C)n(C)n1 [Example 42, 5-((Dimethylamino)methyl)-N-((4-fluoro-2-isopropyl-6-(pyrimidin-5-yl)phenyl)carbamoyl)-1-methyl-1H-pyrazole-3-sulfonamide]
CC(C)c1cc(F)cc(-c2cncnc2)c1NC(=O)NS(=O)(=O)c1cc(CN(C)C)n(C(C)C)n1 [Example 43, 5-((Dimethylamino)methyl)-N-((4-fluoro-2-isopropyl-6-(pyrimidin-5-yl)phenyl)carbamoyl)-1-isopropyl-1H-pyrazole-3-sulfonamide]
CC(C)c1cc(F)cc(-c2ccnc(N(C)C)c2)c1NC(=O)NS(=O)(=O)c1ccn(C(C)C)n1 [Example 50, N-((2-(2-(Dimethylamino)pyridin-4-yl)-4-fluoro-6-isopropylphenyl)carbamoyl)-1-isopropyl-1H-pyrazole-3-sulfonamide]
CC(C)c1cc(F)cc(-c2ccnc(C(N)=O)c2)c1NC(=O)NS(=O)(=O)c1cc(CN(C)C)n(C)n1 [Example 67, 4-(2-(3-((5-((Dimethylamino)methyl)-1-methyl-1H-pyrazol-3-yl)sulfonyl)ureido)-5-fluoro-3-isopropylphenyl)picolinamide]

IC50, ≤ 0.5 µM:
Cc1cc(-c2cc(F)cc(C(C)C)c2NC(=O)NS(=O)(=O)c2ccn(C(C)C)n2)n(C)n1 [Example 11, N-((2-(1,3-Dimethyl-1H-pyrazol-5-yl)-4-fluoro-6-iso-propylphenyl)carbamoyl)-1-iso-propyl-1H-pyrazole-3-sulfonamide, partial ammonium salt]
Cc1cc(-c2cc(F)cc(C(C)C)c2NC(=O)NS(=O)(=O)c2ccn(C(C)C)n2)ccn1 [Example 13, N-((4-Fluoro-2-iso-propyl-6-(2-methylpyridin-4-yl)phenyl)carbamoyl)-1-iso-propyl-1H-pyrazole-3-sulfonamide, partial ammonium salt]
